EP0568307A1, “Cosmetic composition containing alpha hydroxy carboxylic acids as preservatives” (priority 1992, dated 1993)

What was measured:
Type in all cases: cell-based
[1] = test system: Aspergillus niger & Penicillium sp.; assay: Mould challenge test (mould spore suspension, viable count after 1, 7, 14, 28 days); details: pH 5.5
Description: (§1) The micro-organisms selected for this test were: • i) Pseudomonas cepacia - a gram-negative bacterium, • ii) Candida parapsilosis - a yeast, and • iii) Aspergillus niger & Penicillium sp., - a mixture of moulds.
The above procedure applies to the inoculation of the bacterium and the yeast, and this procedure was varied slightly with the mixed culture of moulds as follows: • i) two samples of each test composition (9.9 ml and 9 ml) were transferred to sterile flasks and 0.1 ml or 1 ml of a mould spore suspension (approximately 10⁸ spores per ml) was introduced into the respective samples and thoroughly mixed. The inoculated samples were incubated at 28°C for up to 28 days with 1 ml samples being aseptically removed for the total viable count as outlined above using Sabouraud's dextrose agar after 1, 7, and 28 days. • ii) "Low risk" compositions eliminate mould spores in 1 to 2 days, "medium risk" compositions take 7 to 14 days to eliminate the spores and the "high risk" compositions still have surviving mould spores after 14 days incubation.

[2] = test system: Pseudomonas cepacia; assay: Challenge test, repeated inoculation with a bacterium until failure; details: Series IV, pH 5.5
Description: A test was devised to assess the ability of selected hydroxyorganic acids to preserve, against microbial spoilage, compositions according to the invention and, by way of comparison, others containing conventional chemical preservative substances.
(§2) This test involved incubating under standard conditions test compositions which have been inoculated with a selected bacterium, yeast or a mixture of moulds. […] Accordingly, the higher the number of "challenges", the better is the preservative. substance in preventing or at least delaying microbial spoilage.
as §1
(§3) The method of testing was as follows: • i) Introduce aseptically 99 ml of test composition into a 250 ml flask and add 1 ml of inoculum of one of the test organisms (see above), to provide a dilution of 10⁶ cells/ml in the composition. • ii) mix and incubate at 28°C for 24 hours. • iii) remove 1 ml of incubated composition from the flask and add to it 9 ml of peptone water/Tween 80 as diluent and mix thoroughly. • iv) place 1 ml of diluted sample into a petri dish and add warm, molten agar (40°C) and mix to distribute culture uniformly and allow to set. • v) incubate plates for 3 days at 28°C and then count colonies and note log reduction of count (due to the presence of the preservative in the original culture composition).
(§4) The inoculation of the organisms originally introduced into each composition is then repeated at 24 hour intervals, following removal of the first total viable count sample, the plating out and counting procedure being repeated on each occasion. The test is terminated when the samples show a contamination level greater than 10² counts per ml on 2 consecutive days. This point is regarded as the failure point for the composition under test.
(§5) The greater the number of inoculations of contaminant organisms before this level of contamination is established in the composition, the better the preservative system.

[3] = test system: one of the test organisms; assay: Challenge test, inoculations to failure, Series V (organism not stated in Table 10); details: 1% w/w added to oil-in-water skin cream, pH 5.5
Description: as §2, §3, §4, §5
Various preservative materials were added to samples of this base formulation. The resulting compositions were subjected to the mould challenge test, as set out in Table 10 below.

[4] = Series IV, 0.1 % w/w in water-in-oil cream
[5] = Series IV, 0.25 % w/w in water-in-oil cream
[6] = Series IV, 0.5 % w/w in water-in-oil cream
[7] = Series IV, 0.75 % w/w in water-in-oil cream
[8] = Series IV, 1 % w/w in water-in-oil cream
[9] = Series V, 1% w/w added to oil-in-water skin cream

Compound: COCCCCCCCC=CCC(O)C(=O)O (stereo not shown) ['oxa' hydroxy acid, 2-Hydroxy-13-oxa-4-tetradecenoic acid]
- preservation against the mould challenge (in words) ([1]; Series II): good preservation

Compound: CCCCCCC(O)C(=O)O (stereo not shown) [2-hydroxyoctanoic acid]
- number of inoculations of bacteria to failure ([2]; 0.1 % w/w in water-in-oil cream): 4
- number of inoculations of bacteria to failure ([2]; 0.25 % w/w in water-in-oil cream): 4
- number of inoculations of bacteria to failure ([2]; 0.5 % w/w in water-in-oil cream): 20
- number of inoculations of bacteria to failure ([2]; 0.75 % w/w in water-in-oil cream): >20
- number of inoculations of bacteria to failure ([2]; 1 % w/w in water-in-oil cream): >20
- mould challenge 1% [1, 4]: ++
- mould challenge 10% [1, 4]: ++
- mould challenge 1% [1, 5]: ++
- mould challenge 10% [1, 5]: ++
- mould challenge 1% [1, 6]: +
- mould challenge 10% [1, 6]: ++
- mould challenge 1% [1, 7]: +
- mould challenge 10% [1, 7]: ++
- mould challenge 1% [1, 8]: -
- mould challenge 10% [1, 8]: -
- mould challenge 1% [1, 9]: +
- No of inoculations to failure [3]: >20

Compound: CCCCCCCCCCCC(=O)OCC(O)CO (stereo not shown) [Monolaurin, reference compound]
- mould challenge 1% [1, 9]: ++++
- No of inoculations to failure [3]: 1

Compound: CCCCCCCCCCCC(=O)O [Lauric acid, reference compound]
- mould challenge 1% [1, 9]: ++++
- No of inoculations to failure [3]: 1
